Experimental data as given in ChEMBL document CHEMBL1128149, “Molecular design of novel PGI2 agonists without PG skeleton. IV” (Bioorg Med Chem Lett, 1995).

Key:
Homo sapiens = species on record: Homo sapiens; test: Compound was tested for its inhibitory activity against 4 uM ADP-induced platelet aggregation of human platelet rich plasma; format: functional
Prostacyclin receptor = Prostacyclin receptor (Homo sapiens, UniProt P43119); test: Compound was tested for its binding affinity against Prostaglandin I2 receptor using conventional ligand assay by the displacement of [3H]-iloprost from human platelets
Prostacyclin receptor, sequence (P43119 whole entry): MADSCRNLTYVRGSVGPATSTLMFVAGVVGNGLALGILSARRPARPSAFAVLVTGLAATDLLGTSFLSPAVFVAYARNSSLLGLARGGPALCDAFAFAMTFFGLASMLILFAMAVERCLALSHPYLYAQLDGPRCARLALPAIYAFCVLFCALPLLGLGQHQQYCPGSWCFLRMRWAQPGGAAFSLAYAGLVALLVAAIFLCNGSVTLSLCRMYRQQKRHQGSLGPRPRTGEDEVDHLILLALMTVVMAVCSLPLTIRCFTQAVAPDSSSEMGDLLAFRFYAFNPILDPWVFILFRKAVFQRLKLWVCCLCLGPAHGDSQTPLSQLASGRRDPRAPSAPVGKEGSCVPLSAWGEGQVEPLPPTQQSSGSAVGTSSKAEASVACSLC

| Structure (SMILES) | IC50 (Homo sapiens; Homo sapiens, Plasma) [nM] | IC50 (Homo sapiens) [nM] | IC50 (Prostacyclin receptor) [nM] |
| --- | --- | --- | --- |
| O=C(O)COc1cccc2c1CCC(CC1C=NC(C(c3ccccc3)c3ccccc3)=N1)C2 (stereo not drawn) | 12000 |  |  |
| O=C(O)COc1cccc2c1CCC(CC1=NC(C(c3ccccc3)c3ccccc3)=NC1)C2 (stereo not drawn) |  | 1000 |  |
| O=C(O)COc1cccc2c1CCCC2CCn1cc(C(c2ccccc2)c2ccccc2)cn1 (stereo not drawn) | 93 |  | 18 |
| O=C(O)COc1cccc2c1CCC(Cn1cnc(C(c3ccccc3)c3ccccc3)c1)C2 (stereo not drawn) | 670 |  |  |
| O=C(O)COc1cccc2c1CCC(Cn1cc(C(c3ccccc3)c3ccccc3)cn1)=C2 | 26 |  | 8 |
| O=C(O)COc1cccc2c1CCC=C2CCn1cc(C(c2ccccc2)c2ccccc2)cn1 | 8600 |  | 2000 |
| O=C(O)COc1cccc2c1CCC(Cn1cc(C(c3ccccc3)c3ccccc3)cn1)C2 (stereo not drawn) |  | 530 | 40 |
| O=C(O)COc1cccc2c1CCC(Cc1nc(C(c3ccccc3)c3ccccc3)co1)C2 (stereo not drawn) |  | 5100 |  |
| O=C(O)COc1cccc2c1CCC(Cc1coc(C(c3ccccc3)c3ccccc3)n1)C2 (stereo not drawn) |  | 1000 |  |
